Experimental data published in ChEMBL document CHEMBL1201862, “PubChem BioAssay data set” (2004).
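Results reflect a 48-hour exposure of cells in 96-well plates to compound at five concentrations. The concentration for 50% growth inhibition is given as GI50.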 The source made the active and inactive calls. Cut-off read from the data, not from the text of the source: active = GI50 up to about 1.1 µM and inactive = higher.

Assays:
Assay in all cases: DTP human tumour cell line panel, 48 h
HCT-116 = system: HCT-116
OVCAR-8 = system: OVCAR-8
HCT-15 = system: HCT-15
COLO 205 = system: COLO 205
MDA-N = system: MDA-N
U-251 = system: U-251
UACC-62 = system: UACC-62
A549 = system: A549
KM12 = system: KM12
CAKI-1 = system: CAKI-1
SNB-19 = system: SNB-19
SW-620 = system: SW-620
M14 = system: M14
HT-29 = system: HT-29
OVCAR-4 = system: OVCAR-4
SN12C = system: SN12C
UACC-257 = system: UACC-257
MDA-MB-231 = system: MDA-MB-231
LOX IMVI = system: LOX IMVI
SR = system: SR

SMILES | GI50 (HCT-116) | GI50 (OVCAR-8) | GI50 (HCT-15) [µM] | GI50 (COLO 205) | GI50 (MDA-N) | GI50 (U-251) | GI50 (UACC-62) | GI50 (A549) | GI50 (KM12) | GI50 (CAKI-1) | GI50 (SNB-19) | GI50 (SW-620) | GI50 (M14) | GI50 (HT-29) | GI50 (OVCAR-4) | GI50 (SN12C) | GI50 (UACC-257) | GI50 (MDA-MB-231) | GI50 (LOX IMVI) | GI50 (SR)
C[C@@H](C(=O)O)N1C(c2ccco2)=C(/C(C=O)=C\c2ccco2)C(=O)/C1=C\c1ccco1 | > 100 µM (inactive) | > 100 µM (inactive) | > 100 | > 100 µM (inactive) | > 100 µM (inactive) | > 100 µM (inactive) | > 100 µM (inactive) | > 100 µM (inactive) | > 100 µM (inactive) | > 100 µM (inactive) | > 100 µM (inactive) | > 100 µM (inactive) | > 100 µM (inactive) | > 100 µM (inactive) | > 100 µM (inactive) | > 100 µM (inactive) | > 100 µM (inactive) | > 100 µM (inactive) | > 100 µM (inactive) | 
O=C(NN1C(=O)/C(=C/c2ccc(Cl)cc2)N=C1c1ccccc1)c1c(Cl)c(Cl)c(Cl)c(Cl)c1-c1nc2ccccc2[nH]1 | 15.6 µM (inactive) | 27.9 µM (inactive) | 9.62 | 22.6 µM (inactive) | 3.84 µM (inactive) |  | 10.7 µM (inactive) | 5.98 µM (inactive) | 4.15 µM (inactive) | 18.9 µM (inactive) | 22.1 µM (inactive) | 20.6 µM (inactive) | 17.3 µM (inactive) | 27.4 µM (inactive) |  | 24.1 µM (inactive) |  |  | 8.79 µM (inactive) | 3.58 µM (inactive)
CC/C(=N\NC(=O)c1cccnc1)c1ccc2c(c1)OCCO2 | > 100 µM (inactive) | > 100 µM (inactive) | > 100 | > 100 µM (inactive) | 30.9 µM (inactive) | > 100 µM (inactive) | 87.9 µM (inactive) | > 100 µM (inactive) | 96.6 µM (inactive) | > 100 µM (inactive) | > 100 µM (inactive) | > 100 µM (inactive) | > 100 µM (inactive) | > 100 µM (inactive) | > 100 µM (inactive) | > 100 µM (inactive) |  | 74.8 µM (inactive) | > 100 µM (inactive) | 
CC(C)C1OC2(C)OC(=N)C1(C#N)C(C#N)(C#N)C2C (stereo not drawn) | 27.2 µM (inactive) | 25.8 µM (inactive) | 12.8 | 14.5 µM (inactive) | 15.2 µM (inactive) | 24.2 µM (inactive) | 27.6 µM (inactive) | > 100 µM (inactive) | 52 µM (inactive) | 10.9 µM (inactive) | > 10 µM (inactive) | 26.6 µM (inactive) | 14.6 µM (inactive) | 16.3 µM (inactive) |  | 13.9 µM (inactive) | 28.5 µM (inactive) | 15.4 µM (inactive) | 19 µM (inactive) | 
COc1ccc(C2C3=C(N=C4SC(C(C)=O)=C(C)N42)c2ccccc2CC3)cc1 (stereo not drawn) | 15 µM (inactive) | > 100 µM (inactive) | > 100 | > 100 µM (inactive) | 21.1 µM (inactive) | 57.9 µM (inactive) | 45.7 µM (inactive) | 83 µM (inactive) | 38.6 µM (inactive) |  | > 100 µM (inactive) | > 100 µM (inactive) | > 100 µM (inactive) | 6.52 µM (inactive) | > 100 µM (inactive) | > 100 µM (inactive) | 73.3 µM (inactive) | > 100 µM (inactive) | 63.8 µM (inactive) | 
COC(=O)CCCC1(CCCC(=O)OC)CCCCCCCCC(CCCC(=O)OC)(CCCC(=O)OC)C(=O)C1=O | 9.44 µM (inactive) | 50.7 µM (inactive) | > 100 | > 100 µM (inactive) | > 100 µM (inactive) | 18.9 µM (inactive) | 13.6 µM (inactive) | 11.6 µM (inactive) | 38.8 µM (inactive) | 9.84 µM (inactive) | > 100 µM (inactive) | > 100 µM (inactive) | 70.1 µM (inactive) | 43.5 µM (inactive) | 17.3 µM (inactive) | > 100 µM (inactive) | > 100 µM (inactive) |  | 23 µM (inactive) | 20.4 µM (inactive)
Cn1c2c(c3c(=O)[nH]ncc31)CCCc1ccccc1-2 | 18.1 µM (inactive) | 24.9 µM (inactive) | 29.8 | 17.9 µM (inactive) |  | 27.9 µM (inactive) | 28.7 µM (inactive) | 27.2 µM (inactive) | 37.3 µM (inactive) | 21.8 µM (inactive) | 42.7 µM (inactive) | 34.3 µM (inactive) | 39.3 µM (inactive) | 28.4 µM (inactive) | 37.4 µM (inactive) | 25.6 µM (inactive) | 34.1 µM (inactive) | 27.5 µM (inactive) | 21.6 µM (inactive) | 0.0993 µM (active)
CCOP(=O)(C=C=C(C)C)OCC | > 100 µM (inactive) | > 100 µM (inactive) | > 100 | > 100 µM (inactive) | > 100 µM (inactive) | > 100 µM (inactive) | > 100 µM (inactive) | > 100 µM (inactive) | > 100 µM (inactive) | > 100 µM (inactive) | > 100 µM (inactive) | > 100 µM (inactive) | > 100 µM (inactive) | > 100 µM (inactive) | > 100 µM (inactive) | > 100 µM (inactive) | > 100 µM (inactive) |  | > 100 µM (inactive) | > 100 µM (inactive)
O=C(CNCc1ccccc1)Oc1c(Cl)c(Cl)c(Cl)c(Cl)c1Cl | > 100 µM (inactive) | 21.4 µM (inactive) | 25.4 | 25 µM (inactive) |  | 28.5 µM (inactive) | 21.5 µM (inactive) | 30.4 µM (inactive) | 21.8 µM (inactive) | 25.3 µM (inactive) | 28.6 µM (inactive) | 32.5 µM (inactive) | 77.8 µM (inactive) | 32.7 µM (inactive) | 44.1 µM (inactive) | 31.2 µM (inactive) | 23.1 µM (inactive) | 25.4 µM (inactive) | 29.6 µM (inactive) | 21.8 µM (inactive)
COc1cc(CC(C)N)ccc1O (stereo not drawn) | > 100 µM (inactive) | > 100 µM (inactive) | > 100 | > 100 µM (inactive) | > 100 µM (inactive) | > 100 µM (inactive) | > 100 µM (inactive) | > 100 µM (inactive) | > 100 µM (inactive) | > 100 µM (inactive) | > 100 µM (inactive) | > 100 µM (inactive) | > 100 µM (inactive) | > 100 µM (inactive) | > 100 µM (inactive) | > 100 µM (inactive) | > 100 µM (inactive) |  | > 100 µM (inactive) | > 100 µM (inactive)
Cc1cc(S(=O)(=O)Nc2nc(N)n[nH]2)c(S)cc1Cl | > 10 µM (inactive) | > 10 µM (inactive) | > 10 | > 10 µM (inactive) | > 10 µM (inactive) | > 10 µM (inactive) | > 10 µM (inactive) | > 10 µM (inactive) | > 10 µM (inactive) | > 10 µM (inactive) | > 10 µM (inactive) | > 10 µM (inactive) | > 10 µM (inactive) | > 10 µM (inactive) | > 10 µM (inactive) | > 10 µM (inactive) | > 10 µM (inactive) | > 10 µM (inactive) | > 10 µM (inactive) | 
